Assay results reported in the NIST ThermoML archive (doi:10.1021/je060107n).
Numbers after ± are expanded uncertainties.

Assay: mn = molality of the nth substance listed, in mol/kg
Settings: 101 kPa, Liquid; for speed of sound: Linear variable-path acoustic interferometer; for mass density: Pycnometric method; for viscosity: Capillary tube (Ostwald / Ubbelohde) method

O=[N+]([O-])[O-].O=[N+]([O-])[O-].[Mg+2] [magnesium nitrate] + O
Settings | mass density [kg/m3] | speed of sound [m/s] | viscosity [mPa·s]
293.15 K, m1 = 2.131 | – | 1656.3 ± 2 | –
293.15 K, m1 = 2.493 | – | 1682.1 ± 2 | –
293.15 K, m1 = 2.793 | – | 1705.3 ± 2 | –
293.15 K, m1 = 3.118 | – | 1728.1 ± 2 | –
293.15 K, m1 = 3.17 | – | 1736.5 ± 2 | –
293.15 K, m1 = 3.501 | – | 1755.4 ± 2 | –
293.15 K, m1 = 3.757 | – | 1771.3 ± 2 | –
293.15 K, m1 = 4.051 | – | 1787.5 ± 2 | –
293.15 K, m1 = 4.285 | – | 1802.4 ± 2.1 | –
293.15 K, m1 = 4.403 | – | 1809.3 ± 2.1 | –
293.15 K, m1 = 4.883 | – | 1838.8 ± 2.1 | –
295.75 K, m1 = 0.3405 | 1032.9 ± 0.6 | – | –
296 K, m1 = 5.134 | 1404.4 ± 1 | – | –
297.5 K, m1 = 3.501 | 1299.9 ± 1.1 | – | –
297.65 K, m1 = 0.5931 | 1057.4 ± 0.6 | – | –
297.85 K, m1 = 4.285 | 1350.5 ± 0.8 | – | –
297.9 K, m1 = 3.17 | 1281.3 ± 1.2 | – | –
298.1 K, m1 = 2.493 | 1225.2 ± 0.8 | – | –
298.15 K, m1 = 0.0145 | – | 1498.3 ± 1.9 | 0.9075 ± 0.012
298.15 K, m1 = 0.0528 | – | 1500.5 ± 1.9 | 0.9227 ± 0.012
298.15 K, m1 = 0.2491 | – | 1514.9 ± 1.9 | 0.9713 ± 0.013
298.15 K, m1 = 0.3405 | – | 1519 ± 1.9 | –
298.15 K, m1 = 0.5931 | – | – | 1.079 ± 0.014
298.15 K, m1 = 0.6173 | – | 1540.9 ± 1.9 | –
298.15 K, m1 = 0.896 | – | 1563 ± 1.9 | –
298.15 K, m1 = 0.9898 | – | 1570.8 ± 1.9 | 1.232 ± 0.016
298.15 K, m1 = 1.262 | – | 1590 ± 1.9 | 1.366 ± 0.018
298.15 K, m1 = 1.525 | – | 1611.1 ± 1.9 | –
298.15 K, m1 = 1.827 | – | 1637.3 ± 1.9 | 1.662 ± 0.022
298.15 K, m1 = 2.131 | – | 1660.5 ± 2 | 1.842 ± 0.024
298.15 K, m1 = 2.493 | – | 1685.3 ± 2 | –
298.15 K, m1 = 2.584 | – | – | 2.206 ± 0.029
298.15 K, m1 = 2.793 | – | 1706.5 ± 2 | –
298.15 K, m1 = 3.096 | – | – | 2.665 ± 0.035
298.15 K, m1 = 3.118 | – | 1728.8 ± 2 | –
298.15 K, m1 = 3.17 | – | 1736.6 ± 2 | –
298.15 K, m1 = 3.329 | – | – | 2.921 ± 0.039
298.15 K, m1 = 3.501 | – | 1754.6 ± 2 | –
298.15 K, m1 = 3.704 | – | – | 3.367 ± 0.045
298.15 K, m1 = 3.757 | – | 1774.2 ± 2 | –
298.15 K, m1 = 4.039 | – | – | 3.889 ± 0.052
298.15 K, m1 = 4.051 | – | 1786.2 ± 2 | –
298.15 K, m1 = 4.285 | – | 1800.3 ± 2.1 | –
298.15 K, m1 = 4.403 | – | 1806.6 ± 2.1 | –
298.15 K, m1 = 4.728 | – | – | 5.349 ± 0.071
298.15 K, m1 = 4.883 | – | 1831.8 ± 2.1 | –
298.15 K, m1 = 4.907 | – | – | 5.933 ± 0.079
298.15 K, m1 = 5.134 | – | 1855.2 ± 2.1 | –
298.15 K, m1 = 5.282 | – | – | 7.034 ± 0.093
298.2 K, m1 = 5.134 | 1402.9 ± 1 | – | –
298.5 K, m1 = 4.051 | 1333.6 ± 0.8 | – | –
299.15 K, m1 = 0.0145 | 998.05 ± 0.63 | – | –
299.35 K, m1 = 0.0528 | 1002.2 ± 0.7 | – | –
299.6 K, m1 = 0.3405 | 1031.8 ± 0.6 | – | –
299.75 K, m1 = 2.131 | 1196.1 ± 0.8 | – | –
299.8 K, m1 = 3.501 | 1298.5 ± 0.9 | – | –
299.95 K, m1 = 4.728 | 1377.8 ± 0.8 | – | –
300.1 K, m1 = 3.17 | 1280 ± 0.9 | – | –
300.15 K, m1 = 4.883 | 1384.4 ± 0.9 | – | –
300.3 K, m1 = 4.285 | 1349 ± 0.9 | – | –
300.35 K, m1 = 2.493 | 1223.9 ± 0.8 | – | –
300.5 K, m1 = 0.9898 | 1095.4 ± 0.8 | – | –
300.5 K, m1 = 5.134 | 1401.4 ± 1 | – | –
300.75 K, m1 = 2.584 | 1232 ± 0.8 | – | –
300.75 K, m1 = 4.039 | 1332.1 ± 0.9 | – | –
300.85 K, m1 = 4.051 | 1332.2 ± 0.9 | – | –
300.9 K, m1 = 0.896 | 1085.9 ± 0.7 | – | –
300.95 K, m1 = 0.5931 | 1056.2 ± 0.7 | – | –
300.95 K, m1 = 1.262 | 1119.4 ± 0.7 | – | –
300.95 K, m1 = 2.793 | 1247.4 ± 0.8 | – | –
301 K, m1 = 4.97 | 1390.1 ± 1 | – | –
301.05 K, m1 = 3.704 | 1311.3 ± 0.9 | – | –
301.1 K, m1 = 1.525 | 1142.4 ± 0.7 | – | –
301.25 K, m1 = 4.403 | 1355.4 ± 0.8 | – | –
301.6 K, m1 = 0.2491 | 1022.3 ± 0.7 | – | –
